Source: ChEMBL document CHEMBL1129391, “Potent and selective thrombin inhibitors incorporating the constrained arginine mimic l-3-piperidyl(N-guanidino)alanine at P1” (J Med Chem, 1996)

Columns and labels:
Prothrombin = Prothrombin (Homo sapiens, UniProt P00734); test: Compound was evaluated for inhibition of amidolytic activity for chromogenic substrate thrombin […].
Coagulation factor X = Coagulation factor X (Homo sapiens, UniProt P00742); test: Compound was evaluated for inhibition of amidolytic activity for chromogenic substrate Coagulation factor X
Trypsin II = biological target: T1, Trypsin II (Bos taurus, UniProt Q29463); test: Compound was evaluated for inhibition of amidolytic activity for chromogenic substrate trypsin
T1 sequence (Q29463 whole entry): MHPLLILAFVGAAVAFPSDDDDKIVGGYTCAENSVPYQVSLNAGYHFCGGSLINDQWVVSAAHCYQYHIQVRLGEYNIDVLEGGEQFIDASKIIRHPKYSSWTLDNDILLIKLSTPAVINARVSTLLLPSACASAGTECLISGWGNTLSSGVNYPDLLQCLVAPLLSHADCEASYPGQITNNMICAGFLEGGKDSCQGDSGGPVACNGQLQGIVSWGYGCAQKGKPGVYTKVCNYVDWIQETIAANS

Sequence of Coagulation factor X (P00742 41-179 limits assumed): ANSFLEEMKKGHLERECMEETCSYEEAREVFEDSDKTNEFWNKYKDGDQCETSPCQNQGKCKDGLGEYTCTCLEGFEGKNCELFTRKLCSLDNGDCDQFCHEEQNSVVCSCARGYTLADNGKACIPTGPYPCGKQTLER
Sequence of Coagulation factor X (P00742 235-488 limits assumed): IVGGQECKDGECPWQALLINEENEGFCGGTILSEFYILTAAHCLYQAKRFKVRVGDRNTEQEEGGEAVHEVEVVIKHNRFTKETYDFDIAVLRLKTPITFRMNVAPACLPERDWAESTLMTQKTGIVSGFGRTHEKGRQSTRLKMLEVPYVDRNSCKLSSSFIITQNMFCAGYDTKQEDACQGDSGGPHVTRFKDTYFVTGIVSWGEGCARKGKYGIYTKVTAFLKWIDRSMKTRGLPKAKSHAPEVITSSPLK

Row | Compound | IC50 (Prothrombin) [nM] | IC50 (Coagulation factor X) [nM] | IC50 (Trypsin II) [nM]
1 | N=C(N)NCCC[C@@H](C=O)NC(=O)CN1CCC[C@H](NS(=O)(=O)Cc2ccccc2)C1=O | 12.4 | > 2500 | 1550
2 | [H]/N=C(\N)N1CCC[C@@H](C[C@@H](C=O)NC(=O)CN2CCC[C@H](NS(=O)(=O)Cc3ccccc3)C2=O)C1 | 0.67 | > 25000 | 68400
3 | CCCC(CCC)C(=O)N[C@@H](CC(=O)OC)C(=O)N1CCC[C@H]1C(=O)N[C@H](C=O)CCCNC(=N)N | – | 301 | 1.2
4 | N=C(N)N1CCC[C@H](C[C@@H](C=O)NC(=O)CN2CCC[C@H](NS(=O)(=O)Cc3ccccc3)C2=O)C1 | 28.8 | > 25000 | 60700
5 | N=C(N)NCCC[C@@H](C=O)NC(=O)CN1CCCC[C@H](NS(=O)(=O)Cc2ccccc2)C1=O | 0.71 | 20.6 | 329
6 | CCCC(CCC)C(=O)N[C@@H](CC(=O)OC)C(=O)N1CCC[C@H]1C(=O)N[C@H](C=O)CC1CCCN(C(=N)N)C1 (stereo in doubt; 4a) | – | > 2500 | 113
7 | CCCC(CCC)C(=O)N[C@@H](CC(=O)OC)C(=O)N1CCC[C@H]1C(=O)N[C@H](C=O)CC1CCCN(C(=N)N)C1 (stereo in doubt; 4b) | – | > 2500 | 69.7
8 | N=C(N)N1CCCC(C[C@@H](C=O)NC(=O)CN2CCCC[C@H](NS(=O)(=O)Cc3ccccc3)C2=O)C1 (stereo in doubt; 6a) | – | > 2500 | 15100
9 | N=C(N)N1CCCC(C[C@@H](C=O)NC(=O)CN2CCCC[C@H](NS(=O)(=O)Cc3ccccc3)C2=O)C1 (stereo in doubt; 6b) | – | > 25000 | 45800
